Data taken from US20250122183A1 (Pfizer Inc., priority 2023, published 2025).

Experiments:
Format in all cases: biochemical
[1] = target: KAT7+BRPF2+EAF6+ING5 4 protein complex (Homo sapiens (Human), UniProt O95251); test: KAT7 BRPF2 assay (SAMDI-MS acetylation of H3 1-21 peptide); conditions: Morrison equation fit; replicate number in parentheses; read-out: KAT7 BRPF2 Ki (nM) (replicate number)
[2] = target: KAT7+BRPF1+EAF6+ING5 4 protein complex (Homo sapiens (Human), UniProt O95251); test: KAT7 BRPF1 assay (SAMDI-MS acetylation of H3 1-21 peptide); conditions: Morrison equation fit; replicate number in parentheses
[3] = target: KAT6A Full length enzyme (Homo sapiens (Human), UniProt Q92794); test: KAT6A assay (SAMDI-MS acetylation of H3 1-21 peptide); conditions: Morrison equation fit; replicate number in parentheses; read-out: KAT6A Ki (nM) (replicate number)
Sequence of KAT6A Full length enzyme (Q92794 other isoform, or with tags, fused parts or gaps): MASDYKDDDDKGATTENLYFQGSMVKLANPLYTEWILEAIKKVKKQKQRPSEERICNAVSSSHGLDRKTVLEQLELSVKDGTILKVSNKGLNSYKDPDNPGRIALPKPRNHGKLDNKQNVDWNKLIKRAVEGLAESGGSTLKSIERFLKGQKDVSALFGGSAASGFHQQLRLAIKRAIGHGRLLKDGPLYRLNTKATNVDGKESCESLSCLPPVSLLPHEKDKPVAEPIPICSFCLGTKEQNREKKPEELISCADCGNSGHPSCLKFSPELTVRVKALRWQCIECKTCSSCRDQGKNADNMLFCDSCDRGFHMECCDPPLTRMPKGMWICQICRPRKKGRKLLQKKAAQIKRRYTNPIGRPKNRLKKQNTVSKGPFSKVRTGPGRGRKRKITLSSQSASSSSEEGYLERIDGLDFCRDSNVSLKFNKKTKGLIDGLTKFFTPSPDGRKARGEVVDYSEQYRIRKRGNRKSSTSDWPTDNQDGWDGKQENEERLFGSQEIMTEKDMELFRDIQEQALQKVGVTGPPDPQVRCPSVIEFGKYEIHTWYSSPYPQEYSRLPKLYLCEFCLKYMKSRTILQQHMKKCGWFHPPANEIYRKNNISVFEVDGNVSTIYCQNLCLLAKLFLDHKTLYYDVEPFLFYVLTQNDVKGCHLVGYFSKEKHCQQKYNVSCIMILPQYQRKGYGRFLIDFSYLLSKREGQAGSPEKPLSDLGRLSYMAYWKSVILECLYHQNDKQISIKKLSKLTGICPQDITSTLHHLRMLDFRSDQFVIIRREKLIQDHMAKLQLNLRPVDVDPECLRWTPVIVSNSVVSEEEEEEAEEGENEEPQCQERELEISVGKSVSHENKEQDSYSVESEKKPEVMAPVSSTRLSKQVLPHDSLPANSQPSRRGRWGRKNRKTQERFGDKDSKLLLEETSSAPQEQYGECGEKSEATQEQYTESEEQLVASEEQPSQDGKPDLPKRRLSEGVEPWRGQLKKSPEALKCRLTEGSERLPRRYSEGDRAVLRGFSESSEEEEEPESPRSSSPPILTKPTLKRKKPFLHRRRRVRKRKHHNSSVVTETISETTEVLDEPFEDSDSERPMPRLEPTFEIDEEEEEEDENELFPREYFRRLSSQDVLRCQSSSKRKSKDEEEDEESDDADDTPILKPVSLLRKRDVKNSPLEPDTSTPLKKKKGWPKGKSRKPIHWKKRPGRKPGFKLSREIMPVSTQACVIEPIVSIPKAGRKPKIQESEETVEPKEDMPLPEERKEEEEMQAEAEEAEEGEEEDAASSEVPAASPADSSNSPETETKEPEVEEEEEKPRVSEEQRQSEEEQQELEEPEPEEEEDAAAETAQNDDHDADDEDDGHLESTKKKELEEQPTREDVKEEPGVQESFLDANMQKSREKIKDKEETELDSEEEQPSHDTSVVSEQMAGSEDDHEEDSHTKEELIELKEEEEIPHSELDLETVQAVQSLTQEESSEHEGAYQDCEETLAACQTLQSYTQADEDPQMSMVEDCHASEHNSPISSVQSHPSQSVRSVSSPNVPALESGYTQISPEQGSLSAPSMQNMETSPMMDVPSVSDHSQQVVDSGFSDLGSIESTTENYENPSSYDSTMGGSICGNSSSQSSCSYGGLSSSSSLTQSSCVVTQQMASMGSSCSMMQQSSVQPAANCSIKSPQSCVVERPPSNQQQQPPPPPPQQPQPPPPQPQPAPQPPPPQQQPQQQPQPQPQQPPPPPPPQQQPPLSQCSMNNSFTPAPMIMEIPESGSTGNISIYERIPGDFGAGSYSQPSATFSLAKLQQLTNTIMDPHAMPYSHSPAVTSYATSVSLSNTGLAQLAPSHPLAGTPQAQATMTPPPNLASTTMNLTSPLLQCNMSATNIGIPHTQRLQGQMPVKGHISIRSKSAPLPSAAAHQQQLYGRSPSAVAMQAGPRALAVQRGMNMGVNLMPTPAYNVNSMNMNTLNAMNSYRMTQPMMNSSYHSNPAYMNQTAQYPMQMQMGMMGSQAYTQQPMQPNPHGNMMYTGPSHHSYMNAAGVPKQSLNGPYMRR

[4] = target: KAT7+JADE1+EAF6+ING5 4 protein complex (Homo sapiens (Human), UniProt O95251); test: KAT7 JADE1 assay (SAMDI-MS acetylation of H3 1-21 peptide); conditions: Morrison equation fit; replicate number in parentheses; read-out: KAT7 JADE1 Ki (nM) (replicate number)
[5] = target: KAT5 Full length enzyme (Homo sapiens (Human), UniProt Q92993); test: KAT5 assay (SAMDI-MS acetylation of H4 1-21 peptide); conditions: Morrison equation fit; replicate number in parentheses; read-out: KAT5 Ki (nM) (replicate number)
Sequence of KAT5 Full length enzyme (Q92993 whole entry): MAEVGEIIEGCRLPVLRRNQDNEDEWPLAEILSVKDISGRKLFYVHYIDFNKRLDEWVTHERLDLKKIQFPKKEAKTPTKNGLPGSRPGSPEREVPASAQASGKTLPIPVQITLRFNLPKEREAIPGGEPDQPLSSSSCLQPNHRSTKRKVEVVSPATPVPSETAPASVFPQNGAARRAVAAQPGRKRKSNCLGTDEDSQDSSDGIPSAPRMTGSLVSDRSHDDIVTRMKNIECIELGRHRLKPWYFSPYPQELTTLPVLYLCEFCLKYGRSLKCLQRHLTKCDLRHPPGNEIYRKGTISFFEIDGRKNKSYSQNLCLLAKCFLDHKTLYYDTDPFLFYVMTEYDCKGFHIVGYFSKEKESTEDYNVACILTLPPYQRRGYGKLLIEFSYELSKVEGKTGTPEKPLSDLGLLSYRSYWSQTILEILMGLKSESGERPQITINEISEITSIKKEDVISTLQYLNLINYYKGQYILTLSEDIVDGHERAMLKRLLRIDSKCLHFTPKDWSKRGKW

[6] = target: KAT8 Full length enzyme (Homo sapiens (Human), UniProt Q9H7Z6); test: KAT8 assay (SAMDI-MS acetylation of H3 1-21 peptide); conditions: Morrison equation fit; replicate number in parentheses; read-out: KAT8 Ki (nM) (replicate number)
Sequence of KAT8 Full length enzyme (Q9H7Z6 whole entry): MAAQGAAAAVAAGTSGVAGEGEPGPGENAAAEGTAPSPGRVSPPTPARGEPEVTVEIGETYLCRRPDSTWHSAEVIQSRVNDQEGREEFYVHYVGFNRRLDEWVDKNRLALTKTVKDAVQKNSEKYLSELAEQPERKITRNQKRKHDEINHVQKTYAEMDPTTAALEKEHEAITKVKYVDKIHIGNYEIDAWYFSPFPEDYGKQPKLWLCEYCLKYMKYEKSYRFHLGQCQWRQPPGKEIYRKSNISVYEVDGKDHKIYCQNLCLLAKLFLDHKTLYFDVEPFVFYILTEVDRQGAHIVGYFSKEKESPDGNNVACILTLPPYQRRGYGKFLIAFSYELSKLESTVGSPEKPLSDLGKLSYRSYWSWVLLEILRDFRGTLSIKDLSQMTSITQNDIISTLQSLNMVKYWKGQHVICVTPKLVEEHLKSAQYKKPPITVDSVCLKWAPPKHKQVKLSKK

Compound | Ki [1] [nM] | Ki [2] [nM] | Ki [3] [nM] | Ki [4] [nM] | Ki [5] [nM] | Ki [6] [nM]
CCn1cnc(Nc2cc3onc(NS(=O)(=O)c4c(OC)cccc4OC)c3cc2OC)n1 [Example 41, N-{6-[(1-ethyl-1H-1,2,4-triazol-3-yl)amino]-5-methoxy-1,2-benzoxazol-3-yl}-2,6-dimethoxybenzene-1-sulfonamide] | 94.2 | 25.6 | 6 | 359 | 3390 | > 16300
CCn1cc(Nc2cc3onc(NS(=O)(=O)c4c(OC)cccc4OC)c3cc2OC)nn1 [Example 42, N-{6-[(1-ethyl-1H-1,2,3-triazol-4-yl)amino]-5-methoxy-1,2-benzoxazol-3-yl}-2,6-dimethoxybenzene-1-sulfonamide] | 30.8 | 26.7 | 10.7 | 316 | 7120 | > 16300
COc1cc(Nc2cc3onc(NS(=O)(=O)c4c(OC)cccc4OC)c3cc2OC)n[nH]1 [Example 44, 2,6-dimethoxy-N-{5-methoxy-6-[(5-methoxy-1H-pyrazol-3-yl)amino]-1,2-benzoxazol-3-yl}benzene-1-sulfonamide] | 16.2 | 9.8 | 3.4 | 48.2 | 1000 | > 16300
COc1cc2c(NS(=O)(=O)c3c(OC)cccc3OC)noc2cc1Nc1cc(C2CC2)n[nH]1 [Example 47, N-{6-[(3-cyclopropyl-1H-pyrazol-5-yl)amino]-5-methoxy-1,2-benzoxazol-3-yl}-2,6-dimethoxybenzene-1-sulfonamide] | 2.2 | 1.9 | 0.8 | 5 | 131 | 1220
COc1cc2c(NS(=O)(=O)c3c(OC)cccc3OC)noc2cc1Nc1cc(C(C)C)n[nH]1 [Example 50, 2,6-dimethoxy-N-(5-methoxy-6-{[3-(propan-2-yl)-1H-pyrazol-5-yl]amino}-1,2-benzoxazol-3-yl)benzene-1-sulfonamide] | 22.8 | 28.4 | 4.5 | 113 | 634 | 709
COc1cc2c(NS(=O)(=O)c3c(OC)cccc3OC)noc2cc1Nc1cc(C2CCNCC2)n[nH]1 [Example 56, 2,6-dimethoxy-N-(5-methoxy-6-{[3-(piperidin-4-yl)-1H-pyrazol-5-yl]amino}-1,2-benzoxazol-3-yl)benzene-1-sulfonamide] | 512 | 157 | 3 | 594 | 22200 | 7220
COc1cc2c(NS(=O)(=O)c3ccc(C)cc3OCC(F)F)noc2cc1Nc1cc(C(C)C)[nH]n1 [Example 62, 2-(2,2-difluoroethoxy)-N-(5-methoxy-6-{[5-(propan-2-yl)-1H-pyrazol-3-yl]amino}-1,2-benzoxazol-3-yl)-4-methylbenzene-1-sulfonamide] | 35.3 | 38.1 | 4.9 | 191 | 750 | 5340
CCOc1ccccc1S(=O)(=O)Nc1noc2cc(Nc3cc(C(C)C)[nH]n3)c(OC)cc12 [Example 63, 2-ethoxy-N-(5-methoxy-6-{[5-(propan-2-yl)-1H-pyrazol-3-yl]amino}-1,2-benzoxazol-3-yl)benzene-1-sulfonamide] | 76.2 | 54.8 | 10.2 | 203 | 436 | 13000
COc1cc2c(NS(=O)(=O)c3ccc(C)cc3OCC(F)F)noc2cc1Nc1cc[nH]n1 [Example 64, 2-(2,2-difluoroethoxy)-N-{5-methoxy-6-[(1H-pyrazol-3-yl)amino]-1,2-benzoxazol-3-yl}-4-methylbenzene-1-sulfonamide] | 144 | 146 | 0.2 | 136 | 48.1 | 550
